# Assay results: PubChem BioAssay (NCI)
#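 The compound was tested at five concentrations on cells cultured in 96-well plates, with a 48-hour exposure period. At the GI50, growth is halved. TGI is the concentration that stops growth completely.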
# Key:
# Experiment in all cases: NCI anticancer screen, dose series, 48 h
# [1] = tested on: HOP-92 NSCLC
# [2] = tested on: HOP-62 NSCLC
# [3] = tested on: SW-620 colon
# [4] = tested on: RPMI-8226 leukemia
# [5] = tested on: NCI-H460 lung
# [6] = tested on: MALME-3M melanoma
# [7] = tested on: HCC-2998 colon
# [8] = tested on: SN12C renal
# [9] = tested on: KM12 colon
# [10] = tested on: DU-145 prostate
# [11] = tested on: 786-0 renal
# [12] = tested on: CCRF-CEM leukemia
# [13] = tested on: MOLT-4 leukemia
# [14] = tested on: RXF 393 renal
# [15] = tested on: HCT-15 colon
# [16] = tested on: HS 578T breast
# [17] = tested on: EKVX NSCLC
# [18] = tested on: OVCAR-5 ovarian
# [19] = tested on: T-47D breast
# [20] = tested on: SNB-19 CNS
# [21] = tested on: UO-31 renal
# [22] = tested on: A498 renal
# [23] = tested on: BT-549 breast
# [24] = tested on: TK-10 renal
# [25] = tested on: NCI/ADR-RES ovarian
# [26] = tested on: ACHN renal
# [27] = tested on: MDA-MB-435
# [28] = tested on: OVCAR-4 ovarian
smiles,measurement,setting,value
Cn1cc(-c2cc(N)n3nc(-c4cn(C)c5ccc(F)cc45)cc3n2)c2cc(F)ccc21,GI50,[1],1.9 µM
same,TGI,[1],3.5 µM
same,GI50,[2],1.99 µM
same,TGI,[2],4.31 µM
same,GI50,[3],1.78 µM
same,TGI,[3],3.41 µM
same,GI50,[4],2.64 µM
same,TGI,[4],8.01 µM
same,GI50,[5],1.9 µM
same,TGI,[5],3.75 µM
same,GI50,[6],1.84 µM
same,TGI,[6],3.57 µM
same,GI50,[7],1.74 µM
same,TGI,[7],3.24 µM
same,GI50,[8],1.9 µM
same,TGI,[8],3.66 µM
same,GI50,[9],1.84 µM
same,TGI,[9],3.56 µM
same,GI50,[10],1.8 µM
same,TGI,[10],3.38 µM
same,GI50,[11],1.5 µM
same,TGI,[11],3 µM
same,GI50,[12],2.75 µM
same,TGI,[12],7.92 µM
same,GI50,[13],2.31 µM
same,TGI,[13],7.01 µM
same,GI50,[14],1.83 µM
same,TGI,[14],3.53 µM
same,GI50,[15],1.85 µM
same,TGI,[15],3.94 µM
same,GI50,[16],2.45 µM
same,TGI,[16],5.9 µM
same,GI50,[17],1.73 µM
same,TGI,[17],3.5 µM
same,GI50,[18],1.93 µM
same,TGI,[18],4.1 µM
same,GI50,[19],1.75 µM
same,TGI,[19],3.69 µM
same,GI50,[20],2.01 µM
same,TGI,[20],4.11 µM
same,GI50,[21],1.52 µM
same,TGI,[21],2.95 µM
same,GI50,[22],1.94 µM
same,TGI,[22],6.18 µM
same,GI50,[23],1.76 µM
same,TGI,[23],3.51 µM
same,GI50,[24],1.62 µM
same,TGI,[24],5.91 µM
same,GI50,[25],2.06 µM
same,TGI,[25],4.6 µM
same,GI50,[26],1.74 µM
same,TGI,[26],3.13 µM
same,GI50,[27],1.73 µM
same,TGI,[27],3.38 µM
same,GI50,[28],1.9 µM
same,TGI,[28],3.9 µM
